Source: ChEMBL document CHEMBL1149747, “Diterpene metabolites from two chemotypes of the marine sponge Myrmekioderma styx” (J Nat Prod, 1992)
Values after ≈ are worked out from the molar mass of the structure shown.

How the values were obtained:
A549 = experiment: Cytotoxicity against human A549 cells; assay type: functional, cell-based
P388 = experiment: Cytotoxicity against mouse P388 cells; assay type: functional, cell-based

| SMILES | IC50 (A549) | IC50 (P388) |
| --- | --- | --- |
| CC(=O)O[C@@H]1C[C@]2(C)C[C@@H]3O[C@]3(C)CCC2[C@@H]2C(C(C)C)=CC[C@]12C (stereo partly specified) | 7 µg/mL (≈ 20.2 µM) | 5.6 µg/mL (≈ 16.2 µM) |
| CC1=CC[C@@]2(C)CC[C@@]3(C)[C@H](O)C=C(C(C)C)[C@H]3C2CC1 (stereo partly specified) | 4 µg/mL (≈ 13.9 µM) | 11.2 µg/mL (≈ 38.8 µM) |
| C=CC(C)(O)/C=C/C=C(\C)CC/C=C(\C)CC(=O)C=C(C)C (stereo unspecified) [STYXENOL A] | 6.1 µg/mL (≈ 20.2 µM) | 5 µg/mL (≈ 16.5 µM) |
